Results from PubChem BioAssay (NCI).
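Exposure lasted 48 hours, with cells grown in 96-well plates and compounds tested at five concentrations. At the TGI there is no net growth.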 Where a SMILES comes first, the peptide text is derived from it. [ ]: non-standard residue; d: D form. The star is where a group is joined. Phe(4-NO2) = N[CH](Cc1ccc([N+](=O)[O-])cc1)C(=O)O; Boc = CC(C)(C)OC(=O)*; OtBu = CC(C)(C)O*

How the values were obtained:
Assay in all cases: NCI tumour cell line growth inhibition, 48 h
OVCAR-8 ovarian = tested on: OVCAR-8 ovarian
HT29 colon = tested on: HT29 colon
HCT-15 colon = tested on: HCT-15 colon
MDA-MB-435 = tested on: MDA-MB-435
NCI-H460 lung = tested on: NCI-H460 lung
MOLT-4 leukemia = tested on: MOLT-4 leukemia
SN12C renal = tested on: SN12C renal
HS 578T breast = tested on: HS 578T breast
T-47D breast = tested on: T-47D breast
SF-295 CNS = tested on: SF-295 CNS

SMILES	TGI (OVCAR-8 ovarian) [µM]	TGI (HT29 colon) [µM]	TGI (HCT-15 colon) [µM]	TGI (MDA-MB-435) [µM]	TGI (NCI-H460 lung) [µM]	TGI (MOLT-4 leukemia) [µM]	TGI (SN12C renal) [µM]	TGI (HS 578T breast) [µM]	TGI (T-47D breast) [µM]	TGI (SF-295 CNS) [µM]
CN(Cc1nc2c(N)nc(N)nc2nc1N)c1ccc(C(=O)NC(CCC(=O)O)C(=O)O)cc1 (stereo not given)	> 100	> 100	> 100	> 100	> 100	> 100	> 100	> 100	> 100	> 100
O=C(CCCN1CCc2[nH]c3cc(F)ccc3c2C1)c1ccc(F)cc1	28.4	20.5	31.3	25.6	23.9	29	27.7	30	36.1	32.7
COc1ccc(S(=O)(=O)Nc2ccc(-c3csc(N4C(=O)/C(=C/C=C\c5ccccc5)N=C4c4ccccc4)n3)cc2)cc1Cl	88.4	> 100	51.5	62	> 100	> 100	> 100	85.5	57.1	> 100
COC(=O)C1(Cc2ccccc2)Cc2ccccc2C1=O (stereo not given)	> 100	> 100	> 100	53.4	> 100	90.9	> 100	> 100	> 100	> 100
Cc1ccc(C2=Nn3c(nc4sc(-c5ccccc5)cc4c3=O)SC2)cc1	> 100	> 100	> 100	> 100	> 100	> 100	> 100	> 100	> 100	> 100
CCOc1ccc(NC(=S)/N=C/C(C(=O)Nc2ccccc2C)=C(\C)O)cc1	> 100	> 100	> 100	> 100	> 100	> 100	> 100	> 100	> 100	> 100
O=C(O)c1ccccc1-c1ccccc1C(=O)c1ccccc1	> 100	> 100	> 100	> 100	> 100	> 100	> 100	> 100	> 100	> 100
COC(=O)C(Cc1ccc([N+](=O)[O-])cc1)NC(=O)C(CC(=O)OC(C)(C)C)NC(=O)OC(C)(C)C (stereo not given) (Boc-Asp(OtBu)-[Phe(4-NO2)]-OMe; configuration not given here)	> 100	> 100	> 100	> 100	> 100	> 100	> 100	40.6	> 100	> 100
CC(=O)Oc1ccc2c(c1)c1c(OC(C)=O)c3ccccc3c(OC(C)=O)c1n2Cc1cccc(C)c1	> 100	> 100	> 100	> 100	> 100	> 100	> 100	78.3	> 100	72.3
COc1cc2c(cc1OC)C1Cc3ccccc3CN1CCC2 (stereo not given)	> 100	> 100	> 100	> 100	> 100	> 100	> 100	> 100	> 100	> 100
O=C(O)c1ccc(Nc2cnc3ccc(C(F)(F)F)cc3n2)cc1	41.2	33.6	36.8	72.3	87.9	44.5	90.2	40	17.9	45.3
CSC1(SC)CCCCCCCCCCC1	> 100	> 100	> 100	> 100	> 100	> 100	> 100	> 100	73.3	97.1
CSc1nc(Br)nc2c1ncn2C1CC(Oc2ccc(C)cc2)C(COc2ccc(C)cc2)O1 (stereo not given)	> 100	> 100	> 100	> 100	> 100	> 100	> 100	65.5	> 100	> 100
O=C1O/C(=C\c2ccc(O)cc2)C(c2ccc(O)c(Cl)c2)=C1Br	73.8	29.9	26.7	53.2	38.7	49	46.4	59.1	62.9	28.9
CCOC(=O)Cc1nc2c(=O)[nH]cnc2n1C1OC(COC(C)=O)C(OC(C)=O)C1OC(C)=O (stereo not given)	> 100	> 100	> 100	> 100	> 100	> 100	> 100	> 100	> 100	> 100
CN(C)CCn1c(=O)c2ccc(NCCNCCO)c3c(=O)c4cc(O)ccc4n(c1=O)c23	7.47	5.2	53.8	6.53	4.51	1.17	5.15	11.4	13.3	21.1
N#Cc1nnc2c3c(-c4ccc(Cl)cc4)c(C#N)c(=O)[nH]c3nn2c1N	14	21.2	30.9	26.8	52.6	14.1	6.37	10.8	3.97	23.9
OCc1ccccc1OC1OC(CO)C(O)C(O)C1O (stereo not given)	> 100	> 100	> 100	> 100	> 100	> 100	> 100	> 100	> 100	> 100
